{
  "source": "patent US20240140986A1",
  "about": "“SYNTHETIC URSOLIC ACID DERIVATIVES AND METHODS OF USE THEREOF” (REATA PHARMACEUTICALS, INC., priority 2021, published 2024)",
  "key": {"[1]": {"system": "IFNγ-induced NO production in RAW 264.7 cells", "assay": "Nitric Oxide Suppression Assay (IFNγ-induced NO, Griess nitrite readout)", "type": "cell-based, mouse", "conditions": "for IC50: Mus musculus, read-out: Avg NO IC50 (nM) (Mean ± SD); for Avg NO IC50 Relative to RTA402 (fold): Table 2, ratio to RTA402", "outline": "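RAW 264.7 mouse macrophages in RPMI 1640 with 0.5% FBS were pretreated 2 h with compound (0.1% DMSO final), then stimulated with 20 ng/mL IFNγ for 24 h at 37° C. Supernatant nitrite was read by Griess absorbance at 525 nm against a nitrite standard curve, normalized to DMSO-IFNγ wells; IC50 from curve fit. Viability by WST-1.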"}, "[2]": {"system": "Nrf2 / ARE-dependent luciferase in AREc32 reporter cell line", "assay": "AREc32 luciferase reporter activation (Nrf2 induction)", "type": "cell-based, human", "conditions": "for EC (2-fold): Homo sapiens, Arec32; for Relative Avg AREc32 EC2X Relative to RTA402 (fold): ratio to RTA402", "outline": "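EC2X is the concentration raising luminescence 2-fold above DMSO-treated cells, from a nonlinear-regression dose–response fit. Compounds (0.03–1000 nM) were applied for nineteen hours, starting one day after seeding 20,000 reporter cells per well. Luciferase was read with One-Glo reagent.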"}, "[3]": {"conditions": "RAW264.7, Table 2, RAW 264.7 cells, 2 h pretreatment, 20 ng/mL interferon gamma 24 h"}, "[4]": {"conditions": "RAW264.7, Table 3, ursolic acid derivatives"}, "[5]": {"conditions": "Table 2, concentration increasing luminescence 2-fold above vehicle, 19 h treatment, read-out: Avg AREc32 EC2X (nM) (Mean ± SD)"}, "[6]": {"conditions": "Table 3, ursolic acid derivatives, read-out: Avg ARE EC-2X (nM) (Mean ± SD)"}},
  "note": "Where two headings read alike, the source gives them in different places.",
  "data": [
    {"compound": "CNC(=O)NC[C@]12CC[C@@H](C)[C@H](C)[C@H]1[C@H]1C(=O)C=C3[C@@]4(C)C=C(C#N)C(=O)C(C)(C)[C@@H]4CC[C@@]3(C)[C@]1(C)CC2", "note": "[Compound T26]", "values": [
      {"measurement": "IC50", "setting": "[1]; [3]", "value": "5.12 ± 2.22", "unit": "nM"},
      {"measurement": "IC50", "setting": "[1]; [4]", "value": "5.12 ± 2.22", "unit": "nM"},
      {"measurement": "Avg NO IC50 Relative to RTA402 (fold)", "setting": "[1]", "value": "1.71 ± 0.70", "unit": "fold"},
      {"measurement": "EC (2-fold)", "setting": "[2]; [5]", "value": "2.23 ± 0.29", "unit": "nM"},
      {"measurement": "EC (2-fold)", "setting": "[2]; [6]", "value": "2.23 ± 0.29", "unit": "nM"},
      {"measurement": "Relative Avg AREc32 EC2X Relative to RTA402 (fold)", "setting": "[2]; Table 2", "value": "0.177 ± 0.020", "unit": "fold"}
    ]},
    {"compound": "C[C@@H]1[C@H]2[C@H]3C(=O)C=C4[C@@]5(C)C=C(C#N)C(=O)C(C)(C)[C@@H]5CC[C@@]4(C)[C@]3(C)CC[C@@]2(CNC(=O)N2CCC2)CC[C@H]1C", "note": "[Compound T27]", "values": [
      {"measurement": "IC50", "setting": "[1]; [3]", "value": "4.03 ± 1.66", "unit": "nM"},
      {"measurement": "Avg NO IC50 Relative to RTA402 (fold)", "setting": "[1]", "value": "1.15 ± 0.40", "unit": "fold"},
      {"measurement": "EC (2-fold)", "setting": "[2]; [5]", "value": "1.62 ± 0.22", "unit": "nM"},
      {"measurement": "Relative Avg AREc32 EC2X Relative to RTA402 (fold)", "setting": "[2]; Table 2", "value": "0.144 ± 0.008", "unit": "fold"}
    ]},
    {"compound": "C[C@@H]1[C@H]2[C@H]3C(=O)C=C4[C@@]5(C)C=C(C#N)C(=O)C(C)(C)[C@@H]5CC[C@@]4(C)[C@]3(C)CC[C@@]2(CNC(=O)C(F)F)CC[C@H]1C", "note": "[Compound T28]", "values": [
      {"measurement": "IC50", "setting": "[1]; [3]", "value": "3.64 ± 1.69", "unit": "nM"},
      {"measurement": "Avg NO IC50 Relative to RTA402 (fold)", "setting": "[1]", "value": "1.15 ± 0.32", "unit": "fold"},
      {"measurement": "EC (2-fold)", "setting": "[2]; [5]", "value": "4.33 ± 1.62", "unit": "nM"},
      {"measurement": "Relative Avg AREc32 EC2X Relative to RTA402 (fold)", "setting": "[2]; Table 2", "value": "0.331 ± 0.101", "unit": "fold"}
    ]},
    {"compound": "C[C@@H]1[C@H]2[C@H]3C(=O)C=C4[C@@]5(C)C=C(C#N)C(=O)C(C)(C)[C@@H]5CC[C@@]4(C)[C@]3(C)CC[C@@]2(CNC(=O)C(C)(F)F)CC[C@H]1C", "note": "[Compound T29]", "values": [
      {"measurement": "IC50", "setting": "[1]; [3]", "value": "4.21 ± 1.75", "unit": "nM"},
      {"measurement": "Avg NO IC50 Relative to RTA402 (fold)", "setting": "[1]", "value": "1.47 ± 0.32", "unit": "fold"},
      {"measurement": "EC (2-fold)", "setting": "[2]; [5]", "value": "3.88 ± 1.19", "unit": "nM"},
      {"measurement": "Relative Avg AREc32 EC2X Relative to RTA402 (fold)", "setting": "[2]; Table 2", "value": "0.317 ± 0.086", "unit": "fold"}
    ]},
    {"compound": "COC(=O)NC[C@]12CC[C@@H](C)[C@H](C)[C@H]1[C@H]1C(=O)C=C3[C@@]4(C)C=C(C#N)C(=O)C(C)(C)[C@@H]4CC[C@@]3(C)[C@]1(C)CC2", "note": "[Compound T30]", "values": [
      {"measurement": "IC50", "setting": "[1]; [3]", "value": "5.12 ± 1.21", "unit": "nM"},
      {"measurement": "Avg NO IC50 Relative to RTA402 (fold)", "setting": "[1]", "value": "1.33 ± 0.30", "unit": "fold"},
      {"measurement": "EC (2-fold)", "setting": "[2]; [5]", "value": "3.29 ± 0.61", "unit": "nM"},
      {"measurement": "Relative Avg AREc32 EC2X Relative to RTA402 (fold)", "setting": "[2]; Table 2", "value": "0.27 ± 0.06", "unit": "fold"}
    ]},
    {"compound": "C[C@@H]1[C@H]2[C@H]3C(=O)C=C4[C@@]5(C)C=C(C#N)C(=O)C(C)(C)[C@@H]5CC[C@@]4(C)[C@]3(C)CC[C@@]2(CNS(C)(=O)=O)CC[C@H]1C", "note": "[Compound T31]", "values": [
      {"measurement": "IC50", "setting": "[1]; [3]", "value": "7.7 ± 3.1", "unit": "nM"},
      {"measurement": "Avg NO IC50 Relative to RTA402 (fold)", "setting": "[1]", "value": "2.25 ± 0.49", "unit": "fold"},
      {"measurement": "EC (2-fold)", "setting": "[2]; [5]", "value": "4.36 ± 0.81", "unit": "nM"},
      {"measurement": "Relative Avg AREc32 EC2X Relative to RTA402 (fold)", "setting": "[2]; Table 2", "value": "0.373 ± 0.071", "unit": "fold"}
    ]},
    {"compound": "CCS(=O)(=O)NC[C@]12CC[C@@H](C)[C@H](C)[C@H]1[C@H]1C(=O)C=C3[C@@]4(C)C=C(C#N)C(=O)C(C)(C)[C@@H]4CC[C@@]3(C)[C@]1(C)CC2", "note": "[Compound T32]", "values": [
      {"measurement": "IC50", "setting": "[1]; [3]", "value": "5.34 ± 1.15", "unit": "nM"},
      {"measurement": "Avg NO IC50 Relative to RTA402 (fold)", "setting": "[1]", "value": "2.52 ± 1.11", "unit": "fold"},
      {"measurement": "EC (2-fold)", "setting": "[2]; [5]", "value": "4.2 ± 1.3", "unit": "nM"},
      {"measurement": "Relative Avg AREc32 EC2X Relative to RTA402 (fold)", "setting": "[2]; Table 2", "value": "0.399 ± 0.111", "unit": "fold"}
    ]},
    {"compound": "C[C@@H]1[C@H]2[C@H]3C(=O)C=C4[C@@]5(C)C=C(C#N)C(=O)C(C)(C)[C@@H]5CC[C@@]4(C)[C@]3(C)CC[C@@]2(CNS(=O)(=O)C2CC2)CC[C@H]1C", "note": "[Compound T33]", "values": [
      {"measurement": "IC50", "setting": "[1]; [3]", "value": "6.84 ± 1.59", "unit": "nM"},
      {"measurement": "Avg NO IC50 Relative to RTA402 (fold)", "setting": "[1]", "value": "2.32 ± 0.42", "unit": "fold"},
      {"measurement": "EC (2-fold)", "setting": "[2]; [5]", "value": "6.93 ± 1", "unit": "nM"},
      {"measurement": "Relative Avg AREc32 EC2X Relative to RTA402 (fold)", "setting": "[2]; Table 2", "value": "0.621 ± 0.137", "unit": "fold"}
    ]},
    {"compound": "CC(=O)N(C)C[C@]12CC[C@@H](C)[C@H](C)[C@H]1[C@H]1C(=O)C=C3[C@@]4(C)C=C(C#N)C(=O)C(C)(C)[C@@H]4CC[C@@]3(C)[C@]1(C)CC2", "note": "[Compound T35]", "values": [
      {"measurement": "IC50", "setting": "[1]; [3]", "value": "5.57 ± 2", "unit": "nM"},
      {"measurement": "IC50", "setting": "[1]; [4]", "value": "5.57 ± 2", "unit": "nM"},
      {"measurement": "Avg NO IC50 Relative to RTA402 (fold)", "setting": "[1]", "value": "1.66 ± 0.32", "unit": "fold"},
      {"measurement": "EC (2-fold)", "setting": "[2]; [5]", "value": "5.05 ± 1.1", "unit": "nM"},
      {"measurement": "EC (2-fold)", "setting": "[2]; [6]", "value": "5.05 ± 1.1", "unit": "nM"},
      {"measurement": "Relative Avg AREc32 EC2X Relative to RTA402 (fold)", "setting": "[2]; Table 2", "value": "0.442 ± 0.136", "unit": "fold"}
    ]},
    {"compound": "CNC(=O)N(C)C[C@]12CC[C@@H](C)[C@H](C)[C@H]1[C@H]1C(=O)C=C3[C@@]4(C)C=C(C#N)C(=O)C(C)(C)[C@@H]4CC[C@@]3(C)[C@]1(C)CC2", "note": "[Compound T36]", "values": [
      {"measurement": "IC50", "setting": "[1]; [3]", "value": "5.08 ± 1.51", "unit": "nM"},
      {"measurement": "IC50", "setting": "[1]; [4]", "value": "5.08 ± 1.51", "unit": "nM"},
      {"measurement": "Avg NO IC50 Relative to RTA402 (fold)", "setting": "[1]", "value": "1.25 ± 0.47", "unit": "fold"},
      {"measurement": "EC (2-fold)", "setting": "[2]; [5]", "value": "5.21 ± 1.17", "unit": "nM"},
      {"measurement": "EC (2-fold)", "setting": "[2]; [6]", "value": "5.21 ± 1.17", "unit": "nM"},
      {"measurement": "Relative Avg AREc32 EC2X Relative to RTA402 (fold)", "setting": "[2]; Table 2", "value": "0.441 ± 0.075", "unit": "fold"}
    ]},
    {"compound": "[2H]C([2H])([2H])C(=O)N(C)C[C@]12CC[C@@H](C)[C@H](C)[C@H]1[C@H]1C(=O)C=C3[C@@]4(C)C=C(C#N)C(=O)C(C)(C)[C@@H]4CC[C@@]3(C)[C@]1(C)CC2", "note": "[Compound T37]", "values": [
      {"measurement": "IC50", "setting": "[1]; [3]", "value": "5.76 ± 1.38", "unit": "nM"},
      {"measurement": "Avg NO IC50 Relative to RTA402 (fold)", "setting": "[1]", "value": "2.08 ± 0.31", "unit": "fold"},
      {"measurement": "EC (2-fold)", "setting": "[2]; [5]", "value": "6.04 ± 2.15", "unit": "nM"},
      {"measurement": "Relative Avg AREc32 EC2X Relative to RTA402 (fold)", "setting": "[2]; Table 2", "value": "0.486 ± 0.047", "unit": "fold"}
    ]}
  ]
}
